Assay results: patent US6486161B1, “Use of rifamycin derivative for treating mastitis in a domestic animal” (priority 2000, dated 2002)
Converted amounts (≈) assume the structure as drawn. Where two headings read alike, the source gives them in different places.

How the values were obtained:
[1] = test system: Staphylococcus aureus 9203; test: S. aureus intracellular killing assay in bovine PMN; type: cell-based; conditions: overnight incubation (18 to 21 hours)
Experimental: The therapeutic effect of the rifamycin derivative (1) was determined by S. aureus intracellular killing assay in bovine polymorphonuclear neutrophil (PMN).
The procedure for PMN isolation was as described in Carlton et al. (Proc. Soc. Exp. Biol. Med. 142: 853-858 (1973)).
Bovine blood collected by venipuncture in 50-ml syringes containing 1.5% EDTA (pH 6.8) was centrifuged at 1,000×g for 25 min. The plasma-buffer layer and the top few millileters were discarded. The packed erythrocyte fraction was pooled in 0.8% NaCl-phosphate buffer (pH 6.8) and 10 ml was placed in 20 ml of sterile water for 40 seconds to lyse the erythrocytes. Immediately thereafter, 10 ml of a 2.7% NaCl-phosphate buffer solution was added to restore isotonicity. The leukocytes, consisting of ≦84% PMNs, were washed twice and suspended in HBSS. PMNs were adjusted to a final concentration of 10^7 cells per ml.
The intracellular killing assay was carried out as described in Sanchez et al. (Antimicrobial Agents and Chemotherapy 29(4): 634-638 (1986)).
Bovine blood PMNs and bacteria (1:1) were suspended in HBSS containing 10% heterologous bovine serum. The mixture was incubated for 90 minutes at 37° C. in Erlenmeyer flasks with rotational mixing at 110 rpm. Lysostaphin (5 μg/ml) was added to the mixture for the final 15 minutes of incubation. The infected PMNs were washed 3 times by low-speed centrifugation and suspended in HBSS. Cells were pipetted (1 ml) into each well of a six-well cluster dish (Bellco Glass, Inc., Vineland, N.J.) at 5×10^6 PMNs per well. PMNs were allowed to attach and form a monolayer for 10 minutes at 37° C. The supernatant fluid with unattached cells was discarded, and 2 ml of fresh HBSS was added to each well. The rifamycin derivatives to be tested were then added to the wells (one six-well plate per drug). These derivatives were dissolved in dimethylsulfoxide, and then diluted in HBSS to final solvent concentrations of 0.01% (vol/vol) or less.
After overnight incubation (18 to 21 hours) at 37° C. with 1% CO2, lysostaphin (5 μg/ml) was added to each well for 15 min (at 37° C.) to kill extracellular bacteria. The monolayers were washed with HBSS, and the cells were lysed by addition of 1 ml of water to each well. The number of viable bacteria was then estimated by plate counts on brain heart infusion agar. […] The results are shown in Table 2, wherein R is the alkyl group in the rifamycin derivative (1).

[2] = test system: Staphylococcus aureus 6097; test: Dose titration in the mouse mastitis model (S. aureus-induced murine mastitis); type: in vivo; conditions: mice, read 6 days after infection; for ED (mg/kg/d) Mastitis: 50% of mice without mastitis; for ED (mg/kg/d) Culture: 50% of mice with no bacteria cultured from gland
Oral toxicity in mice = type: in vivo; conditions: orally administered to mice, 1,000 mg/kg
[3] = test system: Staphylococcus aureus 9203; test: MIC against the strain of the intracellular killing assay; type: cell-based
[4] = test system: S. aureus 30857, a rifampin-resistant isolate; test: MIC, microbroth dilution, strain 30857; type: cell-based, Staphylococcus aureus; conditions: strain 30857
Experimental: (§1) Four S. aureus strains were used: S. aureus 30857, a rifampin-resistant isolate: S. aureus 6097, a strain used in the mouse mastitis test and originally from a case of gangrenous bovine mastitis; S. aureus B83-1, derived from the Newbould 305 strain; and S. aureus ATCC 29213, the in vitro control stain recommended by NCCLS.
(§2) All S. aureus strains were maintained on 3 mm glass beads immersed in trypticase soy broth (BBL Microbiology Systems, Cockeysville, Md.) with 10% glycerol and held at −70° C. until revived. Prior to testing, the strains were subcultured on tryptose blood agar base (Difco, Detroit, Mich.) supplemented with 5% sheep blood for 24 hours at 35° C.
(§3) These compounds were dissolved in 95% ethanol, a solution which was then diluted to 10% ethanol with sterile distilled water. Further dilutions were conducted in water.
(§4) MIC (Minimum Inhibitory Concentration) determinations were performed using the microbroth dilution method. (National Committee for Clinical Laboratory Standards, 1990 Approved Standard […]. Methods for dilution antimicrobial susceptibility tests for bacteria that grow aerobically, 3rd edition. National Committee for Clinical Laboratory Standards, Villanova, Pa.) The results are shown in Table 3, wherein R is the alkyl group R in the rifamycin derivative (1).

S. aureus 6097 [5] = test: MIC, microbroth dilution, strain 6097; type: cell-based, Staphylococcus aureus
Experimental: as §1, §2, §3, §4

S. aureus B83-1 [6] = test: MIC, microbroth dilution, strain B83-1; type: cell-based, Staphylococcus aureus
Experimental: as §1, §2, §3, §4

S. aureus ATCC 29213 [7] = test: MIC, microbroth dilution, strain ATCC 29213; type: cell-based, Staphylococcus aureus
Experimental: as §1, §2, §3, §4

[8] = test system: S. aureus 30857, a rifampin-resistant isolate; type: cell-based, Staphylococcus aureus; conditions: strain 30857
Experimental: (§5) The mutation frequency for development of resistance to the rifamycin derivative (1) as compared to rifampin was determined with selected Staphylococcus aureus strains.
as §1, §2, §3
(§6) The mutation frequency for development of resistance to the compounds tested was determined by the following method. A single colony of each strain was removed from the surface of a blood agar plate with a cotton swab, suspended in 5 ml of Mueller-Hinton broth (BBL), and streaked on the entire surface of five Mueller-Hinton agar plates. The plates were incubated overnight under aerobic conditions at 35° C., growth was removed from the agar using a sterile cotton swab, and the bacteria were suspended in 10 ml physiological saline. This bacterial suspension was the inoculum for the mutation frequency determinations. Standard plate counts were performed on the inoculum by performing serial dilutions and plating a 0.1 ml aliquot on the surface of ten Mueller-Hinton agar plates at each concentration. The plates were incubated for 18-24 hours at 35° C. under aerobic conditions and colony counts performed. Mean bacterial counts were calculated for the inoculum with each strain.
(§7) A 0.1 ml aliquot of the inoculum was then used to inoculate the entire surface of ten plates each containing 1, 10, and 100 μg/ml of the test antimicrobial agents. The plates were incubated for 18-24 hours at 35° C. under aerobic conditions and colony counts performed. Mean bacterial counts were calculated for each antimicrobial concentration and the mutation frequency calculated by dividing the number of colonies which grew on the drug containing media by the inoculum size.

S. aureus 6097 [9] = test: Mutation frequency for resistance, strain 6097; type: cell-based, Staphylococcus aureus
Experimental: as §5, §1, §2, §3, §6, §7

S. aureus B83-1 [10] = test: Mutation frequency for resistance, strain B83-1; type: cell-based, Staphylococcus aureus
Experimental: as §5, §1, §2, §3, §6, §7

S. aureus ATCC 29213 [11] = test: Mutation frequency for resistance, strain ATCC 29213; type: cell-based, Staphylococcus aureus
Experimental: as §5, §1, §2, §3, §6, §7

[12] = route IMM (intramammary), 1 hour after infection

Row | Structure (SMILES) | % reduction ([1]; 100X MIC) [%] | CFU/ml ISD (×10^3) ([1]; 100X MIC) | ED (mg/kg/d) Mastitis [2, 12] [mg/kg/day] | ED (mg/kg/d) Culture ([2]; route IMM (intramammary)) [mg/kg/day] | ED (mg/kg/d) Culture ([2]; route SC (subcutaneous)) [mg/kg/day] | ED (mg/kg/d) Mastitis ([2]; route SC (subcutaneous)) [mg/kg/day] | toxicity (Oral toxicity in mice) | % reduction ([1]; 1X MIC) [%] | CFU/ml ISD (×10^3) ([1]; 1X MIC) | MIC [3] | other results
1 | Cc1onc(-c2ccccc2Cl)c1C(=O)N[C@@H]1C(=O)N2[C@@H]1SC(C)(C)[C@@H]2C(=O)O [Cloxacillin, reference compound] | 0.0 | 5.9 ± 1.9 CFU/ml (×10^3) |  |  |  |  |  |  |  |  | 
2 | CCN1CCN(c2cc(O)c3nc4c5c6c7c(C)c(O)c5c(=O)c(c-4oc3c2)NC(=O)/C(C)=C\C=C\C(C)C(O)C(C)C(O)C(C)C(OC(C)=O)C(C)C(OC)/C=C/OC(C)(O7)C6=O)CC1 (stereo not shown) [R = ethyl] | 100 | 0.0 CFU/ml (×10^3) | 0.3 | 0.4 | 1.5 | 0.4 | did not show any toxicity | 97.0 | 0.09 ± 0.04 CFU/ml (×10^3) | ≦0.03 μg/ml | 
3 | COC1/C=C/OC2(C)Oc3c(C)c(O)c4c(=O)c(c5oc6cc(N7CCN(C(C)C)CC7)cc(O)c6nc-5c4c3C2=O)NC(=O)/C(C)=C\C=C\C(C)C(O)C(C)C(O)C(C)C(OC(C)=O)C1C (stereo not shown) [R = isopropyl] | 100 | 0.0 CFU/ml (×10^3) | 0.2 | 0.2 | 0.6 | 0.4 | did not show any toxicity | 100 | 0.0 CFU/ml (×10^3) | ≦0.03 μg/ml | 
4 | COC1/C=C/OC2(C)Oc3c(C)c(O)c4c(=O)c(c5oc6cc(N7CCN(C8CC8)CC7)cc(O)c6nc-5c4c3C2=O)NC(=O)/C(C)=C\C=C\C(C)C(O)C(C)C(O)C(C)C(OC(C)=O)C1C (stereo not shown) [R = cyclopropyl] |  |  |  |  |  |  | did not show any toxicity |  |  |  | 
5 | COC1/C=C/OC2(C)Oc3c(C)c(O)c4c(=O)c(c5oc6cc(N7CCN(CC(C)C)CC7)cc(O)c6nc-5c4c3C2=O)NC(=O)/C(C)=C\C=C\C(C)C(O)C(C)C(O)C(C)C(OC(C)=O)C1C (stereo not shown) [R = isobutyl] | 100 | 0.0 CFU/ml (×10^3) | 0.3 | 0.3 | 3.5 | 3.5 | did not show any toxicity | 95.0 | 0.15 ± 0.06 CFU/ml (×10^3) | ≦0.03 μg/ml | MIC [4]: >4000 ng/mL; MIC (S. aureus 6097 [5]): 0.98 ng/mL (≈ 1.04 nM); MIC (S. aureus B83-1 [6]): 1.9 ng/mL (≈ 2.02 nM); MIC (S. aureus ATCC 29213 [7]): 1.9 ng/mL (≈ 2.02 nM); Mutation frequency ([8]; 1 μg/ml): >1.0 × 10^−7; Mutation frequency ([8]; 10 μg/ml): >1.0 × 10^−7; Mutation frequency ([8]; 100 μg/ml): >1.0 × 10^−7; Mutation frequency (S. aureus 6097 [9]; 1 μg/ml): 9.5 × 10^−8; Mutation frequency (S. aureus 6097 [9]; 10 μg/ml): 8.9 × 10^−8; Mutation frequency (S. aureus 6097 [9]; 100 μg/ml): 9.9 × 10^−8; Mutation frequency (S. aureus B83-1 [10]; 1 μg/ml): 5.0 × 10^−8; Mutation frequency (S. aureus B83-1 [10]; 10 μg/ml): 5.2 × 10^−8; Mutation frequency (S. aureus B83-1 [10]; 100 μg/ml): 4.7 × 10^−8; Mutation frequency (S. aureus ATCC 29213 [11]; 1 μg/ml): 3.0 × 10^−8; Mutation frequency (S. aureus ATCC 29213 [11]; 10 μg/ml): 3.7 × 10^−8; Mutation frequency (S. aureus ATCC 29213 [11]; 100 μg/ml): 3.5 × 10^−8
